# According to the supplement of paper PMC10307832:
# Legend:
# Assay in all cases: relative viability (nuclei count vs DMSO), 5 days (fraction); higher = more cells survive
# MK-2206 + Alpelisib = compound: NC1(c2ccc(-c3nc4ccn5c(=O)[nH]nc5c4cc3-c3ccccc3)cc2)CCC1 [MK-2206] + Cc1nc(NC(=O)N2CCC[C@H]2C(N)=O)sc1-c1ccnc(C(C)(C)C(F)(F)F)c1 [Alpelisib] (partner 2 µM)
# Method in brief: (§1)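 Dosing by pin tool came one day after lung cancer cell lines were seeded in 1536-well plates, using either one drug or a fixed anchor-drug dose plus five library-drug doses (not always all listed) in √10 steps. After 5 days, nuclei were counted on 4× images. Relative viability is treated-well nuclei count divided by vehicle-well nuclei count, and values are medians of duplicate plates.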
# MK-2206 + Linsitinib = compound: NC1(c2ccc(-c3nc4ccn5c(=O)[nH]nc5c4cc3-c3ccccc3)cc2)CCC1 [MK-2206] + C[C@]1(O)C[C@@H](c2nc(-c3ccc4ccc(-c5ccccc5)nc4c3)c3c(N)nccn32)C1 [Linsitinib] (partner 1 µM)
# Method in brief: as §1
# Pictilisib + Lapatinib = compound: CS(=O)(=O)N1CCN(Cc2cc3nc(-c4cccc5[nH]ncc45)nc(N4CCOCC4)c3s2)CC1 [Pictilisib] + CS(=O)(=O)CCNCc1ccc(-c2ccc3ncnc(Nc4ccc(OCc5cccc(F)c5)c(Cl)c4)c3c2)o1 [Lapatinib] (partner 2 µM)
# Method in brief: as §1
# MK-2206 + Trametinib = compound: NC1(c2ccc(-c3nc4ccn5c(=O)[nH]nc5c4cc3-c3ccccc3)cc2)CCC1 [MK-2206] + CC(=O)Nc1cccc(-n2c(=O)n(C3CC3)c(=O)c3c(Nc4ccc(I)cc4F)n(C)c(=O)c(C)c32)c1 [Trametinib] (partner 0.02 µM)
# Method in brief: as §1
# MK-2206 + Foretinib = compound: NC1(c2ccc(-c3nc4ccn5c(=O)[nH]nc5c4cc3-c3ccccc3)cc2)CCC1 [MK-2206] + COc1cc2c(Oc3ccc(NC(=O)C4(C(=O)Nc5ccc(F)cc5)CC4)cc3F)ccnc2cc1OCCCN1CCOCC1 [Foretinib] (partner 0.25 µM)
# Method in brief: as §1
Cell Line,relative viability (MK-2206 + Alpelisib; first compound 0.01 µM),relative viability (MK-2206 + Alpelisib; first compound 0.03162 µM),relative viability (MK-2206 + Alpelisib; first compound 0.3162 µM),relative viability (MK-2206 + Alpelisib; first compound 1 µM),relative viability (MK-2206 + Linsitinib; first compound 0.01 µM),relative viability (MK-2206 + Linsitinib; first compound 0.03162 µM),relative viability (MK-2206 + Linsitinib; first compound 0.3162 µM),relative viability (MK-2206 + Linsitinib; first compound 1 µM),relative viability (Pictilisib + Lapatinib; first compound 0.02 µM),relative viability (Pictilisib + Lapatinib; first compound 0.06325 µM),relative viability (Pictilisib + Lapatinib; first compound 0.6325 µM),relative viability (Pictilisib + Lapatinib; first compound 2 µM),relative viability (MK-2206 + Trametinib; first compound 0.01 µM),relative viability (MK-2206 + Trametinib; first compound 0.03162 µM),relative viability (MK-2206 + Trametinib; first compound 0.3162 µM),relative viability (MK-2206 + Trametinib; first compound 1 µM),relative viability (MK-2206 + Foretinib; first compound 0.01 µM),relative viability (MK-2206 + Foretinib; first compound 0.3162 µM),relative viability (MK-2206 + Foretinib; first compound 1 µM),relative viability (MK-2206 + Foretinib; first compound 0.03162 µM)
HCC-44,0.784,0.767,0.633,0.59,0.662,0.652,0.556,0.445,0.86,0.977,1.06,0.674,0.927,1.02,1.11,1.04,–,–,–,–
HCC-78,0.372,0.336,0.256,0.21,0.505,0.576,0.388,0.316,0.685,0.749,0.594,0.181,0.746,0.832,0.786,0.907,0.557,0.496,0.459,–
HCC-366,0.526,0.48,0.244,0.212,0.637,0.675,0.364,0.384,1.04,1,0.665,0.162,0.302,0.384,0.204,0.223,0.924,0.869,0.975,1.03
HCC-827,1.07,1.05,0.821,0.816,1.01,0.989,0.982,0.914,0.171,0.209,0.173,0.186,0.541,0.548,0.491,0.444,1.13,0.945,0.984,1.05
HOP-62,1.14,0.925,1.03,0.914,0.783,0.757,1.01,0.998,1.15,1.44,0.931,0.742,0.381,0.368,0.334,0.328,1.09,1.15,1.06,1.16
IA-LM,0.809,0.869,0.578,0.544,0.55,0.632,0.597,0.409,0.926,0.79,0.678,0.364,–,–,–,–,1.06,1.07,1.19,1.11
LC-2-ad,0.888,0.847,0.802,0.793,0.813,0.843,0.909,0.781,0.989,1.13,0.506,0.439,0.924,0.886,0.933,0.927,0.864,0.846,0.889,0.952
LCLC-97TM1,0.316,0.261,0.185,0.204,0.219,0.171,0.177,0.174,0.672,0.93,0.768,0.446,0.195,0.205,0.191,0.206,0.881,0.887,0.804,0.929
LCLC-103H,1.02,0.977,0.933,0.826,1.08,1.07,1,1.12,–,–,–,–,0.691,0.635,0.666,0.659,0.867,0.669,0.698,0.792
NCI-H441,0.697,0.742,0.453,0.661,0.674,0.579,0.435,0.415,–,–,–,–,0.532,0.447,0.28,0.333,0.923,0.59,0.822,1.03
NCI-H522,–,–,–,–,–,–,–,–,–,–,–,–,0.817,0.746,0.635,0.672,–,–,–,–
NCI-H1299,1.03,1.05,1.03,1.03,0.947,1.08,0.977,0.965,1.02,1.01,1,1.01,–,–,–,–,1.15,1.15,1.16,1.06
NCI-H1563,0.934,0.764,0.695,0.656,1.12,1.22,0.797,0.742,1,0.948,0.696,0.564,–,–,–,–,0.882,0.832,0.769,0.988
NCI-H1623,–,–,–,–,–,–,–,–,–,–,–,–,–,–,–,–,0.844,0.795,0.832,0.958
NCI-H1648,–,–,–,–,–,–,–,–,–,–,–,–,0.491,0.497,0.591,0.497,–,–,–,–
NCI-H1650,–,–,–,–,–,–,–,–,1.02,0.806,0.672,0.51,0.54,0.649,0.612,0.643,1.28,0.864,0.947,1.15
NCI-H1703,0.355,0.366,0.317,0.416,1.01,1.03,0.544,0.748,0.939,1.33,0.405,0.247,–,–,–,–,0.368,0.377,0.333,0.309
NCI-H1792,0.673,0.652,0.706,0.773,0.573,0.596,0.549,0.636,0.923,0.928,0.809,0.387,0.363,0.395,0.365,0.296,–,–,–,–
NCI-H2170,0.82,0.835,0.755,0.776,–,–,–,–,0.285,0.306,0.226,0.245,0.943,0.898,0.878,0.87,1.06,1.02,1.02,1.04
NCI-H2342,–,–,–,–,–,–,–,–,–,–,–,–,0.909,0.8,0.664,0.682,0.985,1,0.901,1.13
SW 900,–,–,–,–,–,–,–,–,–,–,–,–,0.809,–,0.702,0.86,0.864,0.882,0.769,0.936
